The text below walks through data of patent US5859007A, “CCK or gastrin modulating benzo [b][1,4] diazepines derivatives” (Glaxo Wellcome Inc., priority 1994, dated 1999).

This assay has as its system isolated guinea pig gallbladder. Briefly: Functional activity in isolated guinea pig gallbladder preparation. Type of assay: cell-based. The note with it: Cavia porcellus, expressed as % CCK-induced maximal response; for activation at 1 µM: 1 × 10^-6 M test compound, read-out: %Contraction (1 × 10^-6 M); for activation at 30 µM: 3 × 10^-5 M test compound, read-out: % Contraction (3 × 10^-5 M). The method, then:
3. GUINEA PIG GALL BLADDER ASSAY
Gallbladders are removed from guinea pigs sacrificed by cervical dislocation. The isolated gallbladders are cleaned of adherent connective tissue and cut into two rings from each animal (2-4 mm in length). The rings are subsequently suspended in organ chambers containing a physiological salt solution (118.4 mM NaCl, 4.7 mM KCl, 1.2 mM MgSO4, 2.5 mM CaCl2, 1.2 mM KH2 […], 25 mM NaHCO3, 11.1 mM dextrose). The bathing solution is maintained at 37° C. and aerated with 95% O2 /5% CO2. Tissues are connected via gold chains and stainless steel mounting wires to isometric force displacement transducers (Grass, Model FT03 D). Responses are then recorded on a polygraph (Grass, Model 7E).
Rings are gradually stretched (over a 120 min. period) to a basal resting tension of 1 gm which is maintained throughout the experiment. During the basal tension adjustment period, the rings are exposed to acetylcholine (10^-6 M) four times to verify tissue contractility. The tissues are then exposed to a submaximal dose of sulfated CCK-8 (Sigma, 3×10^-9 M). After obtaining a stable response, the tissues are washed out 3 times rapidly and every 5 to 10 minutes for 1 hour to reestablish a stable baseline.
Compounds are dissolved in dimethylsulfoxide ([…]) followed by a concentration-response curve to sulfated CCK-8 (10^-10 to 10^-6 M) in the presence of the highest dose of the test compound. As a final test, ACH (10 mM) is added to induce maximal contraction. A minimum of three determinations of activity are made for each test compound.

Turning to `COc1ccc(N(C(=O)CN2C(=O)C(Cc3cccc4ccccc34)C(=O)N(c3ccccc3)c3ccccc32)C(C)C)cc1` (centres unmarked) [Example 34, N-Isopropyl-N-(4-methoxy-phenyl)-2-(3-naphthalen-1-ylmethyl-2,4-dioxo-5-phenyl-2,3,4,5-tetrahydro-benzo[b][1,4]diazepin-1-yl) acetamide], the activation at 1 µM is 47%.

For the compound `COc1ccc(N(C(=O)CN2C(=O)C(COCc3ccccc3)C(=O)N(c3ccccc3)c3ccccc32)C(C)C)cc1` (centres unmarked) [Example 82, 2-[3-(Benzyloxymethyl)-2,4-dioxo-5-phenyl-2,3,4,5-tetrahydro-benzo[b][1,4]diazepin-1-yl]-N-isopropyl-N-(4-methoxy-phenyl)-acetamide], the activation at 1 µM worked out at 69% and the activation at 30 µM came to 89%.

With `COc1ccc(N(C(=O)CN2C(=O)C(Cc3c[nH]c4ccccc34)C(=O)N(c3ccccc3)c3ccccc32)C(C)C)cc1` (centres unmarked) [Example 22, 2-[3-(1H-indol-3-ylmethyl)-2,4-dioxo-5-phenyl-2,3,4,5-tetrahydro-benzo[b][1,4]diazepin-1-yl]-N-isopropyl-N-(4-methoxy-phenyl) acetamide], the activation at 1 µM was determined as 61% and the activation at 30 µM was determined as 71%.

As for `COc1ccc(N(C(=O)CN2C(=O)C(CC(=O)Nc3ccccc3)C(=O)N(c3ccccc3)c3ccccc32)C(C)C)cc1` (centres unmarked) [Example 17, 2-(2,4-dioxo-5-phenyl-3-phenylcarbamoylmethyl-2,3,4,5-tetrahydro-benzo[b][1,4]diazepin-1-yl)-N-isopropyl-N-(4-methoxy-phenyl)-acetamide], the activation at 1 µM amounted to 48% and the activation at 30 µM came to 55%.

In the case of `COCC1(CC(=O)Nc2ccccc2)C(=O)N(CC(=O)N(c2ccc(OC)cc2)C(C)C)c2ccccc2N(c2ccccc2)C1=O` (centres unmarked) [Example 26, N-Isopropyl-2-(3-methoxymethyl-2,4-dioxo-5-phenyl-3-phenylcarbamoylmethyl-2,3,4,5-tetrahydro-benzo[b][1,4]diazepin-1-yl)-N-(4-methoxy-phenyl)-acetamide], the activation at 1 µM came to 91%.

Consider `COc1ccccc1N(C(=O)CN1C(=O)C(Cc2n[nH]c3ccccc23)C(=O)N(c2ccccc2)c2ccccc21)C(C)C` (centres unmarked) [Example 78, 2-[3-(1H-Indazol-3-ylmethyl)-2,4-dioxo-5-phenyl-2,3,4,5-tetrahydrobenzo[b][1,4]diazepin-1-yl]-N-isopropyl-N-(2-methoxy-phenyl) acetamide], for which the activation at 1 µM is 43%.

In the case of `COc1ccc(N(C(=O)CN2C(=O)C(Cc3n[nH]c4ccccc34)C(=O)N(c3cccnc3)c3cc(F)ccc32)C(C)C)cc1` (centres unmarked) [Example 66, 2-[7-Fluoro-3-(1H-indazol-3-ylmethyl)-2,4-dioxo-5-pyridin-3-yl-2,3,4,5-tetrahydro-benzo[b][1,4]diazepin-1-yl]-N-isopropyl-N-(4-methoxy-phenyl)-acetamide], the activation at 1 µM worked out at 97% and the activation at 30 µM is 116%.

For `COc1ccc(N(C(=O)CN2C(=O)C(C)(Cc3coc4ccccc34)C(=O)N(c3ccccc3)c3ccccc32)C(C)C)cc1` (centres unmarked) [Example 33], the activation at 1 µM came out at 53%.

For `CC(C)N(C(=O)CN1C(=O)C(C)(Cc2c[nH]c3ccccc23)C(=O)N(c2ccccc2)c2ccccc21)c1ccccc1` (centres unmarked) [Example 19, 2-[3-(1H-indol-3-ylmethyl)-3-methyl-2,4-dioxo-5-phenyl-2,3,4,5-tetrahydro-benzo[b][1,4]diazepin-1-yl]-N-isopropyl-N-phenyl acetamide], the activation at 30 µM came out at 76%.

With `COc1ccc(N(C(=O)CN2C(=O)C(CN(C)C(=O)c3ccccc3)C(=O)N(c3ccccc3)c3ccccc32)C(C)C)cc1` (centres unmarked) [Example 28, N-{1-[Isopropyl-(4-methoxy-phenyl)-carbamoylmethyl]-2,4-dioxo-5 phenyl-2,3,4,5-tetrahydro-1H-benzo[b][1,4]diazepin-3-ylmethyl}-N-methyl benzamide], the activation at 1 µM stood at 3%.
